Assay results reported in publication PMC10689823, “Discovery of a Drug-like, Natural Product-Inspired DCAF11 Ligand Chemotype” (Nature Communications, 2023).
“And” between values parts separate entries of the source, which are not always exact repeats. Equal entries are not always repeated.

Columns and labels:
Type in all cases: cell-based
Jurkat cells = assay: Cell viability assay (CellTiter-Glo) in Jurkat cells; settings: for GI50: Homo sapiens; for GI50 / Relative cell viability (%): Jurkat cells, 72 h; for Relative cell viability (%): Fig. 4k; for Cell viability (%) relative to DMSO: individual replicates, Supplementary Fig. 7g
Experimental: (§1) Jurkat cells (3 × 10^3) and Hep G2 cells (3.5 × 10^3) were seeded in 96-well plates in 100 μL culture medium. Cells were treated with compounds dissolved in 50 μl medium at the indicated concentration for 72 h, at the same time, one plate of cells without compounds treatment was used for the cell count at time zero. After adding 40 μl of CellTiter-Glo® reagent (Promega, G7571) to each well for 10 min at room temperature, the luminescence was measured on a Spark® Multimode Microplate Reader (Tecan). The data was analyzed by the GraphPad Prism 9.0.

[1] = as above; settings: human, Jurkat cells; for viability at 72 h, 10 nmol/L: concentration 10 nmol/L; for viability at 72 h, 100 nmol/L: concentration 100 nmol/L; for viability at 72 h, 300 nmol/L: concentration 300 nmol/L; for viability at 72 h, 1000 nmol/L: concentration 1000 nmol/L; for viability at 72 h, 3000 nmol/L: concentration 3000 nmol/L; for viability at 72 h, 10000 nmol/L: concentration 10000 nmol/L; for viability at 72 h, 0.01 µM: 10 nM; for viability at 72 h, 0.1 µM: 100 nM; for viability at 72 h, 1 µM: 1000 nM; for viability at 72 h, 3 µM: 3000 nM
Experimental: as §1

caspase-3/7 activity = assay: Caspase-3/7 Activity Assay in Jurkat cells; settings: 18 h, Fig. 4l
Experimental: Jurkat cells (3 × 10^3) were seeded in 96-well plates in 25 μl culture medium. Cells were treated with compounds dissolved in 25 μl medium at the indicated concentration for 18 h. After adding 50 μl of Caspase-Glo® 3/7 Reagent (Promega, G8091) to each well for 30 min at room temperature, the luminescence was measured on a Spark® Multimode Microplate Reader (Tecan). The data was analyzed by the GraphPad Prism 9.0.

BRD2 [2] = assay: In-Cell Western for BRD2 levels in Hep G2 cells; settings: Hep G2 cells; 4 h
Experimental: Hep G2 cells were seeded in 96-well plates and incubated for 24 h. Compounds were added for the indicated time at the indicated concentration. Cells were then washed once with PBS and fixed with 4% paraformaldehyde for 30 min at room temperature. The fixed cells were permeabilized with 0.5 % Triton-X100 for 15 min followed by block with Intercept® Blocking Buffer (LI-COR Biosciences, 927-70001) for 1 h at room temperature. Primary antibodies for BRD2 (1:800) and Vinculin (1:2000) were diluted with LI-COR buffer and incubated with the cells at 4 °C overnight. Cells were washed with PBS-T, and the secondary antibodies conjugated to IRDye (1:1000, LI-COR Biosciences) were added to the cells for 1 h at room temperature. After washing the cells, the signal was recorded with the Odyssey® CLx Infrared Imaging System (LI-COR Biosciences) and the protein levels were analyzed by Image Studio (LI-COR Biosciences). BRD2 protein levels were normalized to the levels of reference protein vinculin.

BRD2 [3] = target: BRD2 (Homo sapiens, UniProt P25440); assay: BRD2 levels by Western blot in KBM7 cells (WT, DCAF11 knockout, DDB1 knockout); set-up: endogenous in cells; host or cells: KBM7 (WT, DCAF11 KO, DDB1 KO); settings: 4 h
Chain of BRD2 (Homo sapiens, UniProt P25440) (P25440 whole entry): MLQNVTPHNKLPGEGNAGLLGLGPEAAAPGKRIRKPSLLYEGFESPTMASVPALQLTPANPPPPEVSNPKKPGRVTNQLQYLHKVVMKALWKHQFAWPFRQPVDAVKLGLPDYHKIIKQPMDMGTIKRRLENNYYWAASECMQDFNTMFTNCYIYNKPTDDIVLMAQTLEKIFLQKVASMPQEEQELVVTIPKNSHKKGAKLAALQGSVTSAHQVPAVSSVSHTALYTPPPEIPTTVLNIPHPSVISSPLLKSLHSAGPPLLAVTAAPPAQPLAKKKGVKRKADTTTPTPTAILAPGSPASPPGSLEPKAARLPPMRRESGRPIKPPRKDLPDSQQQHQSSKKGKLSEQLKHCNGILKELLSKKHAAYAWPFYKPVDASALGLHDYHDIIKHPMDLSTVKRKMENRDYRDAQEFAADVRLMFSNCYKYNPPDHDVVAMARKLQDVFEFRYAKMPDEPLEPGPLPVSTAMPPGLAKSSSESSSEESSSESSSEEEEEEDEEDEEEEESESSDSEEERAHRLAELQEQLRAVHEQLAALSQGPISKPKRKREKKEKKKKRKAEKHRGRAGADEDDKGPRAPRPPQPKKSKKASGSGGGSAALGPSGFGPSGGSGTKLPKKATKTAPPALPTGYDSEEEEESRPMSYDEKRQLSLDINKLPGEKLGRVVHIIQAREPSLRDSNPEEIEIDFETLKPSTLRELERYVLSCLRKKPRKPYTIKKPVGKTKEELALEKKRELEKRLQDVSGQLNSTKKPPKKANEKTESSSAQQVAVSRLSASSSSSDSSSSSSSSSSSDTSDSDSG
Experimental: Cells were washed with PBS and lysed in lysis buffer (50 mM Tris-HCl, pH 7.4, 150 mM NaCl, 1% Triton X-100, 1% sodium deoxycholate, 0.1% SDS) with complete protease inhibitor cocktail (Roche, 11836170001) for 30 min on ice. For Ramos cells, cell pellets were lysed in lysis buffer (50 mM Tris-HCl, pH 8, 150 mM NaCl, 1% NP-40, 0.5% sodium deoxycholate) with complete protease inhibitor cocktail. After centrifugation at 16,000 x g, the supernatant was transferred into a new tube and the protein concentration was determined by DC protein assay (BIO-RAD, 5000116). Proteins were separated by SDS-PAGE and transferred to a PVDF membrane (Thermo scientific, 0.45 μm, 88518). For PDEδ, BRD2, GAPDH, BRD4, Vinculin and BTK, the membranes were blocked with Intercept® Blocking Buffer (LI-COR Biosciences, 927-70001) at room temperature for 1 h. The primary antibodies for these proteins were diluted with Intercept® Blocking Buffer (1:500 for PDEδ, 1:3000 for Vinculin, and 1:1000 for other proteins) and incubated with the membranes overnight at 4 °C. Membranes were washed with PBS + 0.1% Tween 20 (PBS-T) five times and incubated with secondary antibodies conjugated to IRDye® Infrared Fluorescent Dyes (1:5000, LI-COR Biosciences) at room temperature for 1 h with protection from light. After washing the membrane, signals were visualized using the ChemiDoc MP Imaging System (BIO-RAD Laboratories). For detection of LC3B, BRD3, BLK, DCAF11, DDB1 RBX1, FIP200, V5- and FLAG-Tag the membranes were blocked with 5% milk in PBS-T at room temperature for 1 h. The primary antibodies for these proteins were diluted in 5% milk in PBS-T buffer (1:200 for BRD3, 1:1000 for other proteins) and incubated with the membranes overnight at 4 °C. Membranes were washed with PBS-T five times and incubated with HRP secondary antibodies (1:1500) at room temperature for 1 h. After washing the membrane, protein detection was performed using Western blotting detection reagent (Thermo Scientific, 34095) and the ChemiDoc MP Imaging System (BIO-RAD). Relative band intensities were quantified using Image Lab (BIO-RAD).
DCAF11- or FIP200 (RB1CC1)-targeting sgRNAs were lentivirally packaged using PEI transfection of Lenti-X cells. The viral supernatant was harvested after 72 h, cleared of cellular debris by filtration through a 0.45-µm PES filter and stored in aliquots at −80 °C. The appropriate amount of viral supernatant was transduced into KBM7 cells (1 × 10^6 cells/mL) via spinfection (2000 rpm, 1 h, 37 °C) with polybrene (8 µg/mL). Two days post transduction, the cells were selected with puromycin (1 µg/mL) for a total of 5 days, after which the knockout pools were validated via western blotting.

[4] = individual replicates, Supplementary Fig. 7g, read-out: Cell viability (%) relative to DMSO
[5] = 72 h, Fig. 4k, read-out: Relative cell viability (%)

Structure (SMILES) | GI50 (Jurkat cells) [µM] | Relative cell viability (%) (Jurkat cells; 10 nM, 0.01 µM) | Relative cell viability (%) (Jurkat cells; 30 nM, 0.03 µM) | Relative cell viability (%) (Jurkat cells; 100 nM, 0.1 µM) | Relative cell viability (%) (Jurkat cells; 300 nM, 0.3 µM) | Relative cell viability (%) (Jurkat cells; 1000 nM, 1 µM) | Relative cell viability (%) (Jurkat cells; 3000 nM, 3 µM) | Relative cell viability (%) (Jurkat cells; 10000 nM, 10 µM) | Relative cell viability (%) (Jurkat cells; 30000 nM, 30 µM) | Cell viability (%) relative to DMSO (Jurkat cells; concentration 10 nmol/L) | Cell viability (%) relative to DMSO (Jurkat cells; concentration 30 nmol/L) | Cell viability (%) relative to DMSO (Jurkat cells; concentration 100 nmol/L) | Cell viability (%) relative to DMSO (Jurkat cells; concentration 300 nmol/L) | Cell viability (%) relative to DMSO (Jurkat cells; concentration 1000 nmol/L) | Cell viability (%) relative to DMSO (Jurkat cells; concentration 3000 nmol/L) | Cell viability (%) relative to DMSO (Jurkat cells; concentration 10000 nmol/L) | Cell viability (%) relative to DMSO (Jurkat cells; concentration 30000 nmol/L) | viability at 72 h, 10 nmol/L [1, 4] [%] | viability at 72 h, 100 nmol/L [1, 4] [%] | viability at 72 h, 300 nmol/L [1, 4] [%] | further results
Cc1sc2c(c1C)C(c1ccc(Cl)cc1)=NC(CC(=O)NCCOCCOCCOCCOCCNC(=O)COc1c(Br)cc(CC3C(=O)Nc4ccc(Br)cc43)cc1Br)c1nnc(C)n1-2 (stereo not drawn) [Compound 16] | 1 to 1.2 | 112.636% and 96.9495% | 115.001% and 96.0444% | 99.9011% and 81.8303% | 80.1727% and 96.1576% and 71.4791% | 60.9647% and 43.3109% | 18.6473% and 16.4385% | -0.2254% and 0.02364% and 0.3624% | -0.3131% and -0.2888% and -0.253% | 99.6715% and 109.515% | 97.9616% and 103.22% and 119.751% | 100.592% and 111.273% | 96.8221% and 108.638% | 85.5266% and 95.8957% | 59.9059% and 72.5452% | 8.512% and 16.0463% | -0.0717% and -0.2673% and -0.08298% | 95.2 | 99.6 | 96.7 | viability at 72 h, 1000 nmol/L [1, 4]: 82.7%; viability at 72 h, 3000 nmol/L [1, 4]: 60%; viability at 72 h, 10000 nmol/L [1, 4]: 8.63%; viability at 72 h, 0.01 µM [1, 5]: 97.2%; viability at 72 h, 0.03 µM ([1]; 72 h, 30 nM, Fig. 4k, read-out: Relative cell viability (%)): 102%; viability at 72 h, 0.1 µM [1, 5]: 92.6%; viability at 72 h, 1 µM [1, 5]: 49.7%; viability at 72 h, 3 µM [1, 5]: 16.6%; Caspase 3/7 activity (fold change) (caspase-3/7 activity; 0.3 μM): 1.231 fold change and 1.654 fold change and 1.232 fold change; Caspase 3/7 activity (fold change) (caspase-3/7 activity; 1 μM): 1.2 fold change and 1.194 fold change and 1.182 fold change; BRD2 depletion by In-Cell Western (BRD2 [2]): did not induce in cellulo degradation; BRD2 degradation in KBM7 cells (BRD2 [3]): did not induce degradation of BRD2
Cc1sc2c(c1C)C(c1ccc(Cl)cc1)=NC(CC(=O)NCCOCCOCCOCCOc1c(Br)cc(CC3C(=O)Nc4ccc(Br)cc43)cc1Br)c1nnc(C)n1-2 (stereo not drawn) [Compound 17] | 1 to 1.2 | 113.554% and 104.708% | 107.162% and 119.822% and 97.6289% | 93.2408% and 94.967% | 80.2996% and 90.3554% and 69.1714% | 51.0815% and 43.0724% | 24.9133% and 20.9046% | -0.06982% and 0.1224% and 1.03% | -0.1785% and -0.1531% and -0.21% | 97.5079% and 115.29% | 100.694% and 103.862% | 98.8981% and 102.192% | 95.2575% and 90.332% | 81.9098% and 92.9141% | 61.001% and 70.9093% | 25.3619% and 36.1626% | 28.6334% and 13.2236% and 16.0233% | 104 | 100 | 92.8 | viability at 72 h, 30 nmol/L ([1]; concentration 30 nmol/L, individual replicates, Supplementary Fig. 7g, read-out: Cell viability (%) relative to DMSO): 101%; viability at 72 h, 1000 nmol/L [1, 4]: 80.1%; viability at 72 h, 3000 nmol/L [1, 4]: 58.9%; viability at 72 h, 10000 nmol/L [1, 4]: 38.2%; viability at 72 h, 0.01 µM [1, 5]: 120%; viability at 72 h, 0.1 µM [1, 5]: 104%; viability at 72 h, 1 µM [1, 5]: 54.7%; viability at 72 h, 3 µM [1, 5]: 23%; Caspase 3/7 activity (fold change) (caspase-3/7 activity; 0.3 μM): 1.197 fold change and 0.791 fold change and 0.9918 fold change; Caspase 3/7 activity (fold change) (caspase-3/7 activity; 1 μM): 1.23 fold change and 0.8887 fold change and 1.1561 fold change; BRD2 degradation in KBM7 cells (BRD2 [3]): did not induce degradation of BRD2
